Measured values as given in patent US20030224470A1, “Method of diagnosing statin myopathy” (priority 2002, published 2003).

How the values were obtained:
Statin level in patients = format: in vivo
Description: (§1) The association of increased levels of 3MGA with statin myopathy was discovered in a study of four patients identified among the first 20 patients randomly assigned in an ongoing, unfunded, doubleblinded, crossover clinical trial that had been approved by an investigational review board. Patients who had muscle symptoms during statin therapy that resolved when they were not receiving statins for 2 weeks were recruited from a clinical research group. Eligible patients had to have normal creatine kinase levels while they were experiencing symptoms. End points were 1) whether patients could accurately identify blinded statin therapy, 2) standard measures of functional capacity and muscle strength, 3) standard measures of biochemical properties of blood, urine and muscle specimens and 4) analysis of muscle biopsy for pathology. The muscular strength tests during both placebo use and statin therapy included hip abduction and flexion measured by Nicholas Manual Muscle Tester (Lafayette Instrument Co., Lafayette, Ind.) The standard measures for biochemical alterations included blood, urine and muscle biopsy analysis for levels of endogenous factors and drug. Analysis of muscle biopsy for pathology included general histology of the samples and detection of various markers involved in metabolism.
All four patients in the study had normal statin levels (TABLE 1).

[1] = Serum creatine kinase level during statin therapy; format: in vivo, patients; settings: normal range 0-3.26 μkat/L
Description: as §1
The creatine kinase level remained normal in these patients every time they became myopathic both before and during the trial. The presence of a normal creatine kinase level has previously been used to argue against myopathy in patients with muscle symptoms during statin therapy.

[2] = Clinical muscle symptoms during statin therapy; format: in vivo, patients
Description: as §1

[3] = Muscular strength tests: hip abduction and flexion, Nicholas Manual Muscle Tester; format: in vivo, patients
Description: as §1

[4] = Urine organic acid analysis for 3-methylglutaconic acid (3MGA); format: in vivo, patients
[5] = Muscle biopsy pathology (histology, metabolic markers); format: in vivo, patients; settings: Patient 3; during atorvastatin therapy
Description: as §1, with “metabolism. […]” for “metabolism.”

[6] = Patient 1, 4 years of simvastatin therapy, brief trial of atorvastatin
[7] = Patient 2, lovastatin 40 mg/d, simvastatin added to niacin
[8] = Patient 1, Cerivistatin 0.4 mg/d listed first
[9] = Patient 3, Atorvastatin 20 mg/d
[10] = Patient 4, atorvastatin 10 mg/d

## CCC(C)(C)C(=O)O[C@H]1C[C@@H](C)C=C2C=C[C@H](C)[C@H](CC[C@@H]3C[C@@H](O)CC(=O)O3)[C@H]21 [Simvastatin]
Statin level in patients; Patient 1
  Statin Level: 1.4 (Sim- ngEq/cm^3
Statin level in patients; Patient 2, Simvastatin 40 mg/d
  Statin Level: 16.3 (Sim- ngEq/cm^3
[1]; Patient 2, Simvastatin 40 mg/d
  Creatine Kinase Level during Statin Therapy: 0.73 μkat/L
[2]; [6]
  Muscle symptoms during therapy: muscle aches and decreased exercise tolerance
[2]; [7]
  Muscle symptoms during therapy: muscle aches, weakness, and shortness of breath with exertion
[3]; Patient 2, Simvastatin 40 mg/d
  Hip Abduction (Strength) On Statin: 11.6 kg
  Hip Flexion (Strength) On Statin: 9.6 kg
[4]; Patient 2, Simvastatin 40 mg/d, normal range 0-9 mmol/mol creatinine
  3-Methylglutaconic acid levels On Statin: 11 mmol/mol

## CC[C@H](C)C(=O)O[C@H]1C[C@@H](C)C=C2C=C[C@H](C)[C@H](CC[C@@H]3C[C@@H](O)CC(=O)O3)[C@H]21 [lovastatin]
[2]; [7]
  Muscle symptoms during therapy: muscle pains and weakness

## COCc1c(C(C)C)nc(C(C)C)c(/C=C/[C@@H](O)C[C@@H](O)CC(=O)O)c1-c1ccc(F)cc1 [Cerivistatin]
[1]; Patient 1
  Creatine Kinase Level during Statin Therapy: 0.63 μkat/L
[3]; [8]
  Hip Abduction (Strength) On Statin: 4.1 kg
  Hip Flexion (Strength) On Statin: 8.0 kg
[4]; Patient 1, normal range 0-9 mmol/mol creatinine
  3-Methylglutaconic acid levels On Statin: 21 mmol/mol

## CC(C)c1c(C(=O)Nc2ccccc2)c(-c2ccccc2)c(-c2ccc(F)cc2)n1CC[C@@H](O)C[C@@H](O)CC(=O)O [Atorvastatin]
Statin level in patients; [9]
  Statin Level: 10.9 (Ator- ngEq/cm^3
[1]; [9]
  Creatine Kinase Level during Statin Therapy: 2.30 μkat/L
[1]; Patient 4, Atorvastatin 10 mg/d
  Creatine Kinase Level during Statin Therapy: 1.39 μkat/L
[2]; [6]
  Muscle symptoms during therapy: Symptoms did not change
[2]; Patient 3, atorvastatin 20 mg/d for 2 years
  Muscle symptoms during therapy: aching and weakness of the shoulder, hip, and thigh
[2]; [10]
  Muscle symptoms during therapy: leg aches when climbing stairs
  Time to onset of leg aches: ≤ 2 weeks
[3]; [9]
  Hip Abduction (Strength) On Statin: 6.3 kg
  Hip Flexion (Strength) On Statin: 14.3 kg
[3]; [10]
  Hip Abduction (Strength) On Statin: 12.9 kg
  Hip Flexion (Strength) On Statin: 24.1 kg
[5]
  Muscle biopsy findings during therapy: increased lipid droplets, ragged red fibers, and cytochrome oxidase—negative muscle fibers
